Measured values taken from PMC8274277 (Antiviral Research, 2021).
Where two headings read alike, the source gives them in different places.

What was measured:
[1] = tested on: SARS-CoV-2; format: cell-based, SARS-CoV-2 strain BavPat1; details: VeroE6 cells
[2] = tested on: SARS-CoV-2; design: species or system golden Syrian hamsters; details: hamster, in vivo
[3] = tested on: SARS-CoV-2; assay: Antiviral assay using bronchial human airway epithelium; format: cell-based, SARS-CoV-2 strain BavPat1
[4] = hospitalized COVID-19 patients; ref Aman et al., 2021; cited from earlier work
[5] = tested on: SARS-CoV-2; assay: Lung histology of infected hamsters; format: in vivo, golden Syrian hamsters; details: sacrificed at 5 dpi

## O=C(Nc1ccc(OC(F)(F)Cl)cc1)c1cnc(N2CC[C@@H](O)C2)c(-c2cc[nH]n2)c1 [Asciminib]
[1]
  selectivity Index (SI, CC50/EC50): 1.1
[1]; SARS-CoV-2
  antiviral activity: did not show any antiviral activity

## NC(=O)c1nc(F)c[nH]c1=O [Favipiravir]
[2]
  lung infectious titers (TCID50 assay): significant reductions
  lung viral RNA yields (RT-qPCR): significant reductions
  viral replication in clarified lung homogenates and plasma: significant reduction of viral replication

## Cc1ccc(NC(=O)c2ccc(CN3CCN(C)CC3)cc2)cc1Nc1nccc(-c2cccnc2)n1 [Imatinib]
[3]
  viral RNA yields in apical washes: small significant reduction
[3]; […], imatinib 10, 5, remdesivir 10 μM
  antiviral activity (viral RNA yields and infectious titres in apical washes): no other significant antiviral activity
[4]
  time to discontinuation of supplemental oxygen and mechanical ventilation: does not reduce the time to discontinuation of supplemental oxygen and mechanical ventilation
[2]; po
  molecular plasma viral loads: did not affect significantly
[5]; first experiment, 32 mg/day
  lung histopathological impairements vs untreated group: significant improvement
[5]; second experiment, 32, 16 and 8 mg/day
  lung histopathology grade severity: did not led to a significant improvement

## Cc1ccc(NC(=O)c2ccc(CN3CCN(C)CC3)cc2)cc1Nc1nc(-c2cccnc2)cs1 [Masitinib]
[1]
  selectivity Index (SI, CC50/EC50): 11.5

## CCC(CC)COC(=O)[C@H](C)N[P@](=O)(OC[C@H]1O[C@@](C#N)(c2ccc3c(N)ncnn23)[C@H](O)[C@@H]1O)Oc1ccccc1 [Remdesivir]
[3]
  antiviral activity (viral RNA yields and infectious titres in apical washes): strong antiviral activity
